From patent US20190022152A1, “MICROBIOME RESPONSE TO AGENTS” (Yeda Research and Development Co., Ltd., priority 2014, published 2019)

How the values were obtained:
[1] = tested on: fecal microbiota KEGG pathways; assay: Shotgun metagenomic sequencing: KEGG pathway abundance (Table 2); format: in vivo, mice
Method: Illumina sequence reads were mapped to the human microbiome reference genome database of the Human Microbiome Project [www(dot)hmpdacc(dot)org/HMREFG/^32], and to a gut microbial gene catalogue^33 using GEM mapper^58 with the following parameters: • -m 3 -s 0 -q offset-33 -gem-quality-threshold 26
Microbial species abundance was measured as the fraction of reads that mapped to a single species in the database. An EM algorithm adapted from Pathoscope^59 was employed to determine the correct assignment of reads that mapped to more than one species. We considered only species for which at least 10% of the genome was covered (each coverage bin was 10,000-bp long) in at least one of the growth conditions (saccharin, water, or glucose). Reads mapped to the gut microbial gene catalogue were assigned a KEGG^34,35 ID according to the mapping available with the catalogue. Genes were subsequently mapped to KEGG pathways, and only pathways whose gene coverage was above 0.2 were included.

[2] = tested on: fecal matter from naïve mice; assay: In vitro anaerobic culturing of fecal matter with saccharin; format: cell-based; settings: anaerobic culture with saccharin 5 mgml^−1, day 9
Method: pooled fecal matter from naïve adult WT C57Bl/6 male mice was resuspended in 5 ml PBS in an anaerobic chamber (Coy Laboratory Products, 75% N2, 20% CO2, 5% H2), vortexed for 3 minutes and allowed to settle by gravity for 2 minutes. […] were added to a tube containing Chopped Meat Carbohydrate Broth, PR II (BD) and […] of a 5 mgml-1 saccharin solution or an equal volume of PBS. Every 3 days, 500 ml of culture were diluted to fresh medium containing saccharin or PBS. After 9 days, cultures were used for inoculation of germ-free mice.
Frozen fecal samples were processed for DNA isolation using the MoBio PowerSoil kit according to the manufacturer's instructions. […] the variable region 2 (V2) of the 16S rRNA gene were generated by using the following barcoded primers: Fwd 5′-[…]-3′ (SEQ ID NO: 3), Rev 5′-[…]-3′ (SEQ ID NO: 4). […] Reads were then processed using the QIIME (Quantitative Insights Into Microbial Ecology) analysis pipeline as described, version 1.8. Paired-end joined sequences were grouped into operational taxonomic units (OTUs) using the UCLUST algorithm and the greengenes database. Sequences with distance-based similarity of 97% or greater over median sequence length of 353 bp were assigned to the same OTU. Samples were grouped according to the treatment. […] P-values were FDR corrected for multiple hypothesis testing.

Compound: O=C1NS(=O)(=O)c2ccccc21 [saccharin]
- glycan degradation pathways abundance ([1]; GF mice transplanted with microbiomes cultured in vitro with 5 mgml^−1 saccharin vs PBS): highly enriched
- Log_fold change: 2-Oxocarboxylic acid metabolism ([1]; In vivo (week 11/week 0)): 0.10
- Log_fold change: ABC transporters ([1]; In vivo (week 11/week 0)): 0.02
- Log_fold change: Alanine, aspartate and glutamate metabolism ([1]; In vivo (week 11/week 0)): 0.02
- Log_fold change: Amino sugar and nucleotide sugar metabolism ([1]; In vivo (week 11/week 0)): 0.09
- Log_fold change: Aminoacyl-tRNA biosynthesis ([1]; In vivo (week 11/week 0)): −0.13
- Log_fold change: Aminobenzoate degradation ([1]; In vivo (week 11/week 0)): 0.04
- Log_fold change: Arginine and proline metabolism ([1]; In vivo (week 11/week 0)): 0.05
- Log_fold change: Ascorbate and aldarate metabolism ([1]; In vivo (week 11/week 0)): 0.27
- Log_fold change: Atrazine degradation ([1]; In vivo (week 11/week 0)): 0.12
- Log_fold change: Bacterial chemotaxis ([1]; In vivo (week 11/week 0)): 0.30
- Log_fold change: Bacterial secretion system ([1]; In vivo (week 11/week 0)): −0.10
- Log_fold change: Base excision repair ([1]; In vivo (week 11/week 0)): 0.03
- Log_fold change: Benzoate degradation ([1]; In vivo (week 11/week 0)): 0.00
- Log_fold change: Biosynthesis of amino acids ([1]; In vivo (week 11/week 0)): 0.03
- Log_fold change: Biosynthesis of siderophore group nonribosomal peptides ([1]; In vivo (week 11/week 0)): 0.16
- Log_fold change: Biosynthesis of unsaturated fatty acids ([1]; In vivo (week 11/week 0)): −0.07
- Log_fold change: Biotin metabolism ([1]; In vivo (week 11/week 0)): 0.13
- Log_fold change: Bisphenol degradation ([1]; In vivo (week 11/week 0)): 0.04
- Log_fold change: Butanoate metabolism ([1]; In vivo (week 11/week 0)): 0.00
- Log_fold change: CS-Branched dibasic acid metabolism ([1]; In vivo (week 11/week 0)): 0.11
- Log_fold change: Caprolactam degradation ([1]; In vivo (week 11/week 0)): 0.29
- Log_fold change: Carbon fixation in photosynthetic organisms ([1]; In vivo (week 11/week 0)): −0.13
- Log_fold change: Carbon fixation pathways in prokaryotes ([1]; In vivo (week 11/week 0)): 0.01
- Log_fold change: Carbon metabolism ([1]; In vivo (week 11/week 0)): 0.00
- Log_fold change: Cell cycle-Caulobacter ([1]; In vivo (week 11/week 0)): −0.06
- Log_fold change: Chloroalkane and chloroalkene degradation ([1]; In vivo (week 11/week 0)): −0.07
- Log_fold change: Citrate cycle (TCA cycle) ([1]; In vivo (week 11/week 0)): 0.03
- Log_fold change: Cyanoamino acid metabolism ([1]; In vivo (week 11/week 0)): 0.18
- Log_fold change: Cysteine and methionine metabolism ([1]; In vivo (week 11/week 0)): −0.02
- Log_fold change: D-Alanine metabolism ([1]; In vivo (week 11/week 0)): −0.10
- Log_fold change: D-Arginine and D-ornithine metabolism ([1]; In vivo (week 11/week 0)): −0.08
- Log_fold change: D-Glutamine and D-glutamate metabolism ([1]; In vivo (week 11/week 0)): −0.04
- Log_fold change: DDT degradation ([1]; In vivo (week 11/week 0)): −0.61
- Log_fold change: DNA replication ([1]; In vivo (week 11/week 0)): −0.06
- Log_fold change: Dioxin degradation ([1]; In vivo (week 11/week 0)): −0.34
- Log_fold change: Drug metabolism-other enzymes ([1]; In vivo (week 11/week 0)): 0.05
- Log_fold change: Ether lipid metabolism ([1]; In vivo (week 11/week 0)): 0.05
- Log_fold change: Fatty acid biosynthesis ([1]; In vivo (week 11/week 0)): 0.05
- Log_fold change: Fatty acid degradation ([1]; In vivo (week 11/week 0)): −0.03
- Log_fold change: Fatty acid metabolism ([1]; In vivo (week 11/week 0)): 0.06
- Log_fold change: Flagellar assembly ([1]; In vivo (week 11/week 0)): −0.18
- Log_fold change: Folate biosynthesis ([1]; In vivo (week 11/week 0)): 0.13
- Log_fold change: Fructose and mannose metabolism ([1]; In vivo (week 11/week 0)): 0.18
- Log_fold change: Galactose metabolism ([1]; In vivo (week 11/week 0)): 0.24
- Log_fold change: Geraniol degradation ([1]; In vivo (week 11/week 0)): 0.04
- Log_fold change: Glutathione metabolism ([1]; In vivo (week 11/week 0)): 0.12
- Log_fold change: Glycerolipid metabolism ([1]; In vivo (week 11/week 0)): 0.11
- Log_fold change: Glycerophospholipid metabolism ([1]; In vivo (week 11/week 0)): 0.06
- Log_fold change: Glycine, serine and threonine metabolism ([1]; In vivo (week 11/week 0)): 0.13
- Log_fold change: Glycolysis/Gluconeogenesis ([1]; In vivo (week 11/week 0)): −0.09
- Log_fold change: Glycosaminoglycan degradation ([1]; In vivo (week 11/week 0)): 0.34
- Log_fold change: Glycosphingolipid biosynthesis-globoseries ([1]; In vivo (week 11/week 0)): 0.33
- Log_fold change: Glyoxylate and dicarboxylate metabolism ([1]; In vivo (week 11/week 0)): 0.13
- Log_fold change: Histidine metabolism ([1]; In vivo (week 11/week 0)): 0.13
- Log_fold change: Homologous recombination ([1]; In vivo (week 11/week 0)): −0.09
- Log_fold change: Inositol phosphate metabolism ([1]; In vivo (week 11/week 0)): −0.01
- Log_fold change: Limonene and pinene degradation ([1]; In vivo (week 11/week 0)): 0.04
- Log_fold change: Lipoicacid metabolism ([1]; In vivo (week 11/week 0)): 0.36
- Log_fold change: Lipopolysaccharide biosynthesis ([1]; In vivo (week 11/week 0)): 0.21
- Log_fold change: Lysine biosynthesis ([1]; In vivo (week 11/week 0)): −0.07
- Log_fold change: Lysine degradation ([1]; In vivo (week 11/week 0)): 0.14
- Log_fold change: Methane metabolism ([1]; In vivo (week 11/week 0)): 0.02
- Log_fold change: Mismatch repair ([1]; In vivo (week 11/week 0)): −0.03
- Log_fold change: Naphthalene degradation ([1]; In vivo (week 11/week 0)): 0.04
- Log_fold change: Nicotinate and nicotinamide metabolism ([1]; In vivo (week 11/week 0)): −0.05
- Log_fold change: Nitrogen metabolism ([1]; In vivo (week 11/week 0)): 0.00
- Log_fold change: Nitrotoluene degradation ([1]; In vivo (week 11/week 0)): −0.22
- Log_fold change: Novobiocin biosynthesis ([1]; In vivo (week 11/week 0)): 0.29
- Log_fold change: Nucleotide excision repair ([1]; In vivo (week 11/week 0)): −0.08
- Log_fold change: One carbon pool by folate ([1]; In vivo (week 11/week 0)): 0.07
- Log_fold change: Other glycan degradation ([1]; In vivo (week 11/week 0)): 0.36
- Log_fold change: Oxidative phosphorylation ([1]; In vivo (week 11/week 0)): −0.03
- Log_fold change: Pantothenate and CoA biosynthesis ([1]; In vivo (week 11/week 0)): 0.04
- Log_fold change: Penicillin and cephalosporin biosynthesis ([1]; In vivo (week 11/week 0)): 0.00
- Log_fold change: Pentose and glucuronate interconversions ([1]; In vivo (week 11/week 0)): 0.31
- Log_fold change: Pentose phosphate pathway ([1]; In vivo (week 11/week 0)): 0.03
- Log_fold change: Peptidoglycan biosynthesis ([1]; In vivo (week 11/week 0)): 0.01
- Log_fold change: Phenylalanine metabolism ([1]; In vivo (week 11/week 0)): 0.30
- Log_fold change: Phenylalanine, tyrosine and tryptophan biosynthesis ([1]; In vivo (week 11/week 0)): 0.24
- Log_fold change: Phosphonate and phosphinate metabolism ([1]; In vivo (week 11/week 0)): 0.30
- Log_fold change: Phosphotransferase system (PTS) ([1]; In vivo (week 11/week 0)): −0.43
- Log_fold change: Porphyrin and chlorophyll metabolism ([1]; In vivo (week 11/week 0)): 0.23
- Log_fold change: Propanoate metabolism ([1]; In vivo (week 11/week 0)): 0.02
- Log_fold change: Protein export ([1]; In vivo (week 11/week 0)): −0.04
- Log_fold change: Proximal tubule bicarbonate reclamation ([1]; In vivo (week 11/week 0)): −0.01
- Log_fold change: Purine metabolism ([1]; In vivo (week 11/week 0)): −0.08
- Log_fold change: Pyrimidine metabolism ([1]; In vivo (week 11/week 0)): −0.08
- Log_fold change: Pyruvate metabolism ([1]; In vivo (week 11/week 0)): 0.01
- Log_fold change: RNA degradation ([1]; In vivo (week 11/week 0)): −0.05
- Log_fold change: Riboflavin metabolism ([1]; In vivo (week 11/week 0)): −0.02
- Log_fold change: Ribosome ([1]; In vivo (week 11/week 0)): −0.24
- Log_fold change: Selenocompound metabolism ([1]; In vivo (week 11/week 0)): 0.03
- Log_fold change: Sphingolipid metabolism ([1]; In vivo (week 11/week 0)): 0.34
- Log_fold change: Starch and sucrose metabolism ([1]; In vivo (week 11/week 0)): 0.19
- Log_fold change: Streptomycin biosynthesis ([1]; In vivo (week 11/week 0)): 0.10
- Log_fold change: Styrene degradation ([1]; In vivo (week 11/week 0)): −0.06
- Log_fold change: Sulfur metabolism ([1]; In vivo (week 11/week 0)): 0.19
- Log_fold change: Sulfur relay system ([1]; In vivo (week 11/week 0)): −0.03
- Log_fold change: Synthesis and degradation of ketone bodies ([1]; In vivo (week 11/week 0)): −0.35
- Log_fold change: Taurine and hypotaurine metabolism ([1]; In vivo (week 11/week 0)): 0.14
- Log_fold change: Terpenoid backbone biosynthesis ([1]; In vivo (week 11/week 0)): 0.04
- Log_fold change: Tetracycline biosynthesis ([1]; In vivo (week 11/week 0)): −0.50
- Log_fold change: Thiamine metabolism ([1]; In vivo (week 11/week 0)): −0.03
- Log_fold change: Tropane, piperidine and pyridine alkaloid biosynthesis ([1]; In vivo (week 11/week 0)): 0.27
- Log_fold change: Tryptophan metabolism ([1]; In vivo (week 11/week 0)): 0.01
- Log_fold change: Two−component system ([1]; In vivo (week 11/week 0)): 0.06
- Log_fold change: Tyrosine metabolism ([1]; In vivo (week 11/week 0)): 0.02
- Log_fold change: Ubiquinone and other terpenoid-quinone biosynthesis ([1]; In vivo (week 11/week 0)): 0.03
- Log_fold change: Valine, leucine and isoleucine biosynthesis ([1]; In vivo (week 11/week 0)): 0.10
- Log_fold change: Valine, leucine and isoleucine degradation ([1]; In vivo (week 11/week 0)): 0.06
- Log_fold change: Vibriocholerae pathogenic cycle ([1]; In vivo (week 11/week 0)): −0.01
- Log_fold change: Vitamin B6 metabolism ([1]; In vivo (week 11/week 0)): 0.16
- Log_fold change: Xylene degradation ([1]; In vivo (week 11/week 0)): −0.51
- Log_fold change: beta-Alanine metabolism ([1]; In vivo (week 11/week 0)): 0.14
- Log_fold change: beta-Lactam resistance ([1]; In vivo (week 11/week 0)): 0.11
- KEGG pathways incl. ascorbate and aldarate metabolism, lipopolysaccharide biosynthesis, bacterial chemotaxis ([1]; mice consuming HFD and pure saccharin vs water): multiple enriched pathways
- starch and sucrose, fructose and mannose metabolism, folate-, glycerolipid- and fatty acid biosynthesis pathways ([1]; microbiomes of saccharin consuming mice): enriched
- glucose transport pathways ([1]; saccharin-consuming mice): underrepresented
- glycan degradation pathways abundance ([1]; saccharin-consuming mice, week 11 vs week 0): strong increase
- Firmicutes relative abundance in stool culture ([2]; control 22%): 6%
- Bacteroidetes phyla relative abundance in stool culture ([2]; control 70%): 89%
